Target: Carbonic anhydrase 9 (Homo sapiens, UniProt Q16790)
Test: Inhibition of human carbonic anhydrase 9 preincubated for 15 mins by stopped flow CO2 hydration assay

| Ki [µM] | SMILES |
| --- | --- |
| 0.0251 | NS(=O)(=O)c1ccc(NC(=O)NNS(=O)(=O)c2ccc(F)cc2)cc1 |
| 0.0304 | NS(=O)(=O)c1ccc(NC(=O)NNS(=O)(=O)c2ccc(Br)cc2)cc1 |
| 0.0231 | NS(=O)(=O)c1ccc(NC(=O)NNS(=O)(=O)c2ccc(Cl)cc2)cc1 |
| 0.0387 | NS(=O)(=O)c1ccc(NC(=O)NNS(=O)(=O)c2ccc(Cl)c([N+](=O)[O-])c2)cc1 |
| 0.0813 | CC(=O)Nc1ccc(S(=O)(=O)NNC(=O)Nc2ccc(S(N)(=O)=O)cc2)cc1 |
| 0.0739 | NS(=O)(=O)c1ccc(NC(=O)NNS(=O)(=O)c2ccccc2)cc1 |
| 0.0804 | COc1ccc(S(=O)(=O)NNC(=O)Nc2ccc(S(N)(=O)=O)cc2)cc1 |
| 0.024 | Cc1ccc(S(=O)(=O)NNC(=O)Nc2ccc(S(N)(=O)=O)cc2)cc1 |
| 0.0205 | NS(=O)(=O)c1ccc(NC(=O)NNS(=O)(=O)c2ccc([N+](=O)[O-])cc2)cc1 |
